Test results from US20130296393A1, “METHOD FOR CONTROLLING CLUBROOT” (ISHIHARA SANGYO KAISHA, LTD., priority 2011, published 2013).

Tested on: Plasmodiophora brassicae
Assay: Cabbage clubroot control test, pot test, cyazofamid vs chlorothalonil (Example 3 / Comparative Example 3)
Assay type: in vivo
Design: key to Disease control value: control value = (1 − treated/control severity) × 100; key to Disease severity: severity = Σ(plants × index 0-4)/(plants × 4) × 100
Conditions: for Disease control value / Disease severity: 57 days after settled planting
From the text: Disease severity={Σ(number of each index of diseased plants×disease index)/(number of plants surveyed×4)}×100
Disease control value={1−(treatment disease severity/control disease severity)}×100
0: No adhesion of clubroot, 1: clubroot adhesion to lateral root, 2: clubroot adhesion to the entire lateral root or clubroot adhesion to a part of tap root, 3: adhesion of large clubroot to tap root, and 4: clubroot adhesion to the entire tap root.
A spore suspension of Plasmodiophora brassicae (fungus density: 1×10^5 fungi/g dry soil) was inoculated into a sterilization soil adjusted to pH of 6.0 with Sandoseto and after introducing the resulting test soil into a 1/5000 a pot, a cabbage (variety: Okina) seedling grown in a cell seedling tray (128 cells/seedling box) was settled-planted by establishing five plantings for each test section having a size of 0.02 m^2 for one plant. Immediately, 4 days, 7 days and 14 days after settled planting, the chemical solution for spraying prepared by the same method as in Example 1(1) was drenched into the soil in a ratio of 250 ml/plant. Fifty-seven days after the settled planting, the number of each index of clubroot adhesion to the root was investigated. For comparison, the same test was carried out on a control section where a soil drench treatment with the chemical solution for spraying was not applied.
A chemical solution for spraying in a concentration of 800 ppm was prepared by diluting 40% chlorothalonil (Daconil 1000 [trade name], manufactured by SDS K.K.) with water.
The test was carried out by the same procedure as in Example 3 except that the chemical solution (cyazofamid) for spraying was replaced by the chemical solution (chlorothalonil) for spraying prepared in Comparative Example 3(1).
The disease severity and disease control value of Example 3 and Comparative Example 3 were determined by the same methods as in Example 1 and Comparative Example 1. In addition, the weight of cabbage in the aerial part was measured. Furthermore, the test result was shown by the average value of five plantings.

[1] = 50 ppm soil drench 250 ml/plant 4 days after settled planting
[2] = 50 ppm soil drench 250 ml/plant 7 days after settled planting
[3] = 50 ppm soil drench 250 ml/plant 14 days after settled planting
[4] = 50 ppm soil drench 250 ml/plant just after settled planting

Q: With Cc1ccc(-c2c(Cl)nc(C#N)n2S(=O)(=O)N(C)C)cc1 [cyazofamid, 4-chloro-2-cyano-1-dimethylsulfamoyl-5-(4-methylphenyl)imidazole] as the molecule, how does the “Weight in the aerial part” value [1] read?
A: Its value is 109 g.

Q: What about the Disease control value [1] of the same molecule?
A: The Disease control value was 81.

Q: What about the Disease severity [1] of the same molecule?
A: Its Disease severity is 15.

Q: What about the “Weight in the aerial part” value [2] of the same molecule?
A: The value was 109 g.

Q: And the Disease control value [2]?
A: Its Disease control value is 88.

Q: What about the Disease severity [2] of the same molecule?
A: Its Disease severity is 10.

Q: What about the “Weight in the aerial part” value [3] of the same molecule?
A: The value was 91 g.

Q: What about the Disease control value [3] of the same molecule?
A: The Disease control value was 0.

Q: And the Disease severity [3]?
A: Its Disease severity is 80.

Q: And the “Weight in the aerial part” value [4]?
A: The value was 104 g.

Q: What about the Disease control value [4] of the same molecule?
A: Its Disease control value is 100.

Q: And the Disease severity [4]?
A: Its Disease severity is 0.

Q: And the Control effect (50 ppm soil drench, treatment within 7 days after settled planting)?
A: The Control effect was “a control effect which was sufficient for practical use was obtained”.
